Measurements: patent publication US10898459B2, “Method of treating chronic kidney disease” (Panion & BF Biotech Inc., priority 2006, dated 2021)

Assays:
[1] = test system: patients with end stage renal disease (ESRD) on hemodialysis; test: Treatment-emergent adverse events in the dose-ranging ESRD study; format: in vivo, human
From the text: Safety will be monitored by recording adverse events and the results of physical examinations, vital signs and laboratory tests at each study visit.
Objectives: (1) To determine the effect of ferric citrate at doses of 2, 4 and 6 g daily, administered TID (three times a day), for 28 days on serum phosphate (PO4) levels in patients with end stage renal disease (ESRD). (2) To evaluate the safety of ferric citrate at doses of 2, 4, 6 g daily, administered TID, for 28 days in patients with ESRD.
Study Design: Randomized, double-blind, placebo-controlled, dose-ranging study to assess the effect of ferric citrate on serum phosphate concentrations in patients with ESRD on hemodialysis. Patients are assessed at Study Days 14 and 28 for effectiveness as measured by serum phosphate concentrations. Patients who received one or more doses of study medication are also assessed for safety.

[2] = test system: patients with end stage renal disease (ESRD); details: 3 g daily, recent pilot study in ESRD patients; cited from earlier work

## ferric citrate
[1]; 2 g/day (N = 33)
  Abdominal Pain (Preferred Term), # Event: 0
  Abdominal Pain (Preferred Term), (%): (0.0) %
  Diarrhea (Preferred Term), # Event: 3
  Diarrhea (Preferred Term), (%): (9.1) %
  GI Disorder, Definitely (relationship), # Event: 0
  GI Disorder, Definitely (relationship), (%): (0.0) %
  GI Disorder, Possibly (relationship), # Event: 3
  GI Disorder, Possibly (relationship), (%): (9.1) %
  GI Disorder, Probably (relationship), # Event: 2
  GI Disorder, Probably (relationship), (%): (6.1) %
  GI Disorders (System Organ Class), # Event: 8
  GI Disorders (System Organ Class), (%): (24.2) %
  GI Disorders, Mild (severity), # Event: 6
  GI Disorders, Mild (severity), (%): (18.2) %
  General Disorders (System Organ Class), # Event: 4
  General Disorders (System Organ Class), (%): (12.1) %
  Infections and Infestations (System Organ Class), # Event: 0
  Infections and Infestations (System Organ Class), (%): (0.0) %
  Skin and SC Tissue Disorders (System Organ Class), # Event: 3
  Skin and SC Tissue Disorders (System Organ Class), (%): (9.1) %
  T#at1 AE, Definitely (relationship), # Event: 0
  T#at1 AE, Definitely (relationship), (%): (0.0) %
  T#at1 AE, Mild (severity), # Event: 13
  T#at1 AE, Mild (severity), (%): (39.4) %
  T#at1 AE, Moderate (severity), # Event: 6
  T#at1 AE, Moderate (severity), (%): (18.2) %
  T#at1 AE, Possibly (relationship), # Event: 5
  T#at1 AE, Possibly (relationship), (%): (15.2) %
  T#at1 AE, Probably (relationship), # Event: 2
  T#at1 AE, Probably (relationship), (%): (6.1) %
  T#at1 AE, Severe (severity), # Event: 0
  T#at1 AE, Severe (severity), (%): (0.0) %
  Total number of subjects with at least one adverse event (T#at1 AE), # Event: 16
  Total number of subjects with at least one adverse event (T#at1 AE), (%): (48.5) %
[1]; 4 g/day (N = 34)
  Abdominal Pain (Preferred Term), # Event: 4
  Abdominal Pain (Preferred Term), (%): (11.8) %
  Diarrhea (Preferred Term), # Event: 1
  Diarrhea (Preferred Term), (%): (2.9) %
  GI Disorder, Definitely (relationship), # Event: 0
  GI Disorder, Definitely (relationship), (%): (0.0) %
  GI Disorder, Possibly (relationship), # Event: 6
  GI Disorder, Possibly (relationship), (%): (17.6) %
  GI Disorder, Probably (relationship), # Event: 2
  GI Disorder, Probably (relationship), (%): (5.9) %
  GI Disorders (System Organ Class), # Event: 10
  GI Disorders (System Organ Class), (%): (29.4) %
  GI Disorders, Mild (severity), # Event: 8
  GI Disorders, Mild (severity), (%): (23.5) %
  General Disorders (System Organ Class), # Event: 2
  General Disorders (System Organ Class), (%): (5.9) %
  Infections and Infestations (System Organ Class), # Event: 3
  Infections and Infestations (System Organ Class), (%): (8.8) %
  Skin and SC Tissue Disorders (System Organ Class), # Event: 0
  Skin and SC Tissue Disorders (System Organ Class), (%): (0.0) %
  T#at1 AE, Definitely (relationship), # Event: 0
  T#at1 AE, Definitely (relationship), (%): (0.0) %
  T#at1 AE, Mild (severity), # Event: 9
  T#at1 AE, Mild (severity), (%): (26.5) %
  T#at1 AE, Moderate (severity), # Event: 3
  T#at1 AE, Moderate (severity), (%): (8.8) %
  T#at1 AE, Possibly (relationship), # Event: 6
  T#at1 AE, Possibly (relationship), (%): (17.6) %
  T#at1 AE, Probably (relationship), # Event: 2
  T#at1 AE, Probably (relationship), (%): (5.9) %
  T#at1 AE, Severe (severity), # Event: 2
  T#at1 AE, Severe (severity), (%): (5.9) %
  Total number of subjects with at least one adverse event (T#at1 AE), # Event: 12
  Total number of subjects with at least one adverse event (T#at1 AE), (%): (35.3) %
[1]; 6 g/day (N = 33)
  Abdominal Pain (Preferred Term), # Event: 2
  Abdominal Pain (Preferred Term), (%): (6.1) %
  Diarrhea (Preferred Term), # Event: 1
  Diarrhea (Preferred Term), (%): (3.0) %
  GI Disorder, Definitely (relationship), # Event: 0
  GI Disorder, Definitely (relationship), (%): (0.0) %
  GI Disorder, Possibly (relationship), # Event: 1
  GI Disorder, Possibly (relationship), (%): (3.0) %
  GI Disorder, Probably (relationship), # Event: 5
  GI Disorder, Probably (relationship), (%): (15.2) %
  GI Disorders (System Organ Class), # Event: 10
  GI Disorders (System Organ Class), (%): (30.3) %
  GI Disorders, Mild (severity), # Event: 9
  GI Disorders, Mild (severity), (%): (27.3) %
  General Disorders (System Organ Class), # Event: 4
  General Disorders (System Organ Class), (%): (12.1) %
  Infections and Infestations (System Organ Class), # Event: 1
  Infections and Infestations (System Organ Class), (%): (3.0) %
  Skin and SC Tissue Disorders (System Organ Class), # Event: 4
  Skin and SC Tissue Disorders (System Organ Class), (%): (12.1) %
  T#at1 AE, Definitely (relationship), # Event: 0
  T#at1 AE, Definitely (relationship), (%): (0.0) %
  T#at1 AE, Mild (severity), # Event: 14
  T#at1 AE, Mild (severity), (%): (42.4) %
  T#at1 AE, Moderate (severity), # Event: 2
  T#at1 AE, Moderate (severity), (%): (6.1) %
  T#at1 AE, Possibly (relationship), # Event: 2
  T#at1 AE, Possibly (relationship), (%): (6.1) %
  T#at1 AE, Probably (relationship), # Event: 5
  T#at1 AE, Probably (relationship), (%): (15.2) %
  T#at1 AE, Severe (severity), # Event: 1
  T#at1 AE, Severe (severity), (%): (3.0) %
  Total number of subjects with at least one adverse event (T#at1 AE), # Event: 17
  Total number of subjects with at least one adverse event (T#at1 AE), (%): (51.5) %
[2]
  tolerability (GI symptoms): mild, but tolerable GI symptoms
